Like-named read-outs stand apart in the source and are kept apart here.
Experiments:
[1] = 3-HP preparation (TCI America): behaviour of samples neutralized to pH 7.0; assay type: physicochemical; conditions: 3-HP from TCI America, ether extracted, neutralized with 10 M NaOH to pH 7.0
Source text: (§1) 3-HP was obtained from TCI America (Portland, Oreg.). Significant acrylic acid and 2-oxydipropionic contamination was observed via HPLC analysis. Samples were subsequently treated by diethyl ether extraction to remove acrylic acid and a portion of the 2-oxydipropionic contaminants. Samples were then neutralized with 10 M NaOH to a final pH of 7.0. […] The working stock solution was used for the selection and MIC evaluations in this example.
as §1, with “selection, growth rates” for “selection”

E. coli [2] = assay type: cell-based, Escherichia coli; conditions: aerobic
Description: (§2) For MIC evaluations, the final results are expressed in chemical agent concentrations determined by analysis of the stock solution by HPLC (i.e., see Subsection Mb).
(§3) The minimum inhibitory concentration (MIC) was determined aerobically in a 96 well-plate format. […] Media supplements were added according to levels reported in the Supplements Table, where specified. Overnight cultures of strains were grown in triplicate in 5 mL LB (with antibiotic where appropriate). A 1% (v/v) inoculum was introduced into a 5 ml culture of M9 minimal media.

E. coli K12 = assay type: cell-based, Escherichia coli; conditions: E. coli K12+pSMART-LC-Kan-cynTS vs E. coli K12, M9 minimal media
Description: Overnight cultures of strains were grown in 5 ml LB (with antibiotic where appropriate) at 37° C. in a shaking incubator. A 1 v/v % was used to inoculate 10 mL of M9 minimal media. After the cells reached mid-exponential phase, the culture was diluted to an OD600 of 0.200. The cells were further diluted 1:20 and a 10 ul aliquot was used to inoculate each well (˜10^4 cells per well). […] The MIC endpoint is the lowest concentration of compound at which there was no visible growth.

E. coli [3] = assay type: cell-based, Escherichia coli; conditions: anaerobic; strain BX_00319.0: BW25113 wild type + pK223-aroH; M9 + Amp 100 μg/mL + 1 mM IPTG
Description: as §2
as §3, with “anaerobically” for “aerobically”

[4] = Reactive extraction of 3-HP from fermentation broth with tertiary amine and co-solvents, single pass extraction efficiency; assay type: physicochemical
Description: Calcium chloride at 1 M was added as a flocculent to reach a final concentration of about 8.2 g/L. Thereafter the pH was adjusted to a pH of approximately 2.0 using sulfuric acid. Thereafter a volume of this modified fermentation broth was centrifuged at approximately 3,200 g for 5 minutes to yield a clarified broth and a pellet, which was discarded.
Portions of the clarified broth were then subjected to reactive extraction by mixing with a tertiary amine non-polar phase comprising various co-solvents.

E. coli Mach1-T1 = experiment: Minimum inhibitory concentration (MIC) of 3-HP, microaerobic, 96 well-plate, MOPS minimal media; assay type: cell-based, Escherichia coli; conditions: Mach1-T1 with feedback resistant aroH mutant plasmid, MOPS minimal media
Description: Overnight cultures of strains were grown in 5 ml LB (with antibiotic where appropriate). A 1 v/v % was used to inoculate a 15 ml conical tube filled to the top with MOPS minimal media and capped. After the cells reached mid exponential phase, the culture was diluted to an OD600 of 0.200. The cells were further diluted 1:20 and a 10 ul aliquot was used to inoculate each well (˜10^4 cells per well).
The minimum inhibitory concentration (MIC) was determined microaerobically in a 96 well-plate format. Overnight cultures of strains were grown in 5 mL LB (with antibiotic where appropriate). A 1% (v/v) inoculum was introduced into a 15 ml culture of MOPS minimal media. After the cells reached mid-exponential phase, the culture was diluted to an OD600 of 0.200. The cells were further diluted 1:20 and a 10 μL aliquot was used to inoculate each well of a 96 well plate (˜10^4 cells per well).

[5] = test system: Yeast strains (S288C background); assay type: cell-based, Saccharomyces cerevisiae
Description: The minimum inhibitory concentration (MIC) was determined anaerobically in a 96 well-plate format. […] A 1% (v/v) inoculum was introduced into a 5 ml culture of SD minimal media without vitamins. After the cells reached mid-exponential phase, the culture was diluted to an OD600 of 0.200. The cells were further diluted 1:5 and a 10 μL aliquot was used to inoculate each well of a 96 well plate (˜10^4 cells per well) to total volume of 100 uL. […] Plates were incubated for 72 hours at 30 C. […] Plates were sealed in biobag anaerobic chambers that contained gas generators for anaerobic conditions and incubated for 72 hours at 30 C.

[6] = Tripentylamine with Butanol (2)
[7] = Tripentylamine with Methyl ethyl ketone (4)
[8] = Tripentylamine with Methyl tert-butyl ether (5)
[9] = Tripentylamine with p-Xylene (3)

## O=C(O)CCO [3-HP, 3-hydroxypropionic acid]
[1]
  concentration above which considerable 3-HP polymerization was observed at neutral pH: > 35 g/L
  concentration above which considerable insoluble matter was observed at neutral pH: > 35 g/L
E. coli [2]; strain BX_00301.0: BW25113 wild type + pSmart-LC-Kan-folA-C1, M9 + Kan 20 μg/mL
  % Increase Over Control: 40%
E. coli [2]; strain BX_00302.0: BW25113 wild type + pSmart-LC-Kan-folA-ORF, M9 + Kan 20 μg/mL
  % Increase Over Control: 20%
E. coli [2]; strain BX_00304.0: BW25113 wild type + pSmart-LC-Kan-menA-ORF, M9 + Kan 20 μg/mL
  % Increase Over Control: 40%
E. coli [2]; strain BX_00305.0: BW25113 wild type + pSmart-LC-Kan-pheA-C1, M9 + Kan 20 μg/mL
  % Increase Over Control: 40%
E. coli [2]; strain BX_00307.0: BW25113 wild type + pSmart-LC-Kan-tyrA-C1, M9 + Kan 20 μg/mL
  % Increase Over Control: 40%
E. coli [2]; strain BX_00309.0: BW25113 wild type + pSmart-LC-Kan-cynTS, M9 + Kan 20 μg/mL
  % Increase Over Control: 40%
E. coli [2]; strain BX_00310.0: BW25113 wild type + pSmart-LC-Kan-glyA, M9 + Kan 20 μg/mL
  % Increase Over Control: 40%
E. coli [2]; strain BX_00312.0: BW25113 wild type + pSmart-LC-Kan-serA, M9 + Kan 20 μg/mL
  % Increase Over Control: 40%
E. coli [2]; strain BX_00313.0: BW25113 wild type + pSmart-LC-Kan-folD, M9 + Kan 20 μg/mL
  % Increase Over Control: 20%
E. coli [2]; strain BX_00314.0: BW25113 wild type + pSmart-LC-Kan-aroE, M9 + Kan 20 μg/mL
  % Increase Over Control: 40%
E. coli [2]; strain BX_00315.0: BW25113 wild type + pSmart-LC-Kan-aroKB C1, M9 + Kan 20 μg/mL
  % Increase Over Control: 40%
E. coli [2]; strain BX_00317.0: BW25113 wild type + pSmart-LC-Kan-ilvA operon, M9 + Kan 20 μg/mL
  % Increase Over Control: 40%
E. coli [2]; strain BX_00318.0: BW25113 wild type + pSmart-LC-Kan-cysM, M9 + Kan 20 μg/mL
  % Increase Over Control: 40%
E. coli [2]; strain BX_00319.0: BW25113 wild type + pK223-aroH, M9 + Amp 100 μg/mL + 1 mM IPTG
  % Increase Over Control: 50%
E. coli [2]; strain BX_00321.0: BW25113 wild type + pK223-ct-his-thrA, M9 + Amp 100 μg/mL + 1 mM IPTG
  % Increase Over Control: 75%
E. coli [2]; strain BX_00322.0: BW25113 wild type + pJ61-speFED, M9 + Kan 20 μg/mL
  % Increase Over Control: 40%
E. coli [2]; strain BX_00323.0: BW25113 wild type + pJ61-aroG, M9 + Kan 20 μg/mL
  % Increase Over Control: 40%
E. coli [2]; strain BX_00324.0: BW25113 wild type + pJ61-thrA, M9 + Kan 20 μg/mL
  % Increase Over Control: 40%
E. coli [2]; strain BX_00325.0: BW25113 wild type + pJ61-asd, M9 + Kan 20 μg/mL
  % Increase Over Control: 40%
E. coli [2]; strain BX_00326.0: BW25113 wild type + pJ61-ilvA, M9 + Kan 20 μg/mL
  % Increase Over Control: 40%
E. coli [2]; strain BX_00327.0: BW25113 wild type + pJ61-cysM, M9 + Kan 20 μg/mL
  % Increase Over Control: 40%
E. coli [2]; strain BX_00334.0: BW25113 wild type + pSmart-HC-Amp-cadA, M9 + Amp 100 μg/mL
  % Increase Over Control: 60%
E. coli [2]; strain BX_00335.0: BW25113 wild type + pSmart-HC-Amp-prs, M9 + Amp 100 μg/mL
  % Increase Over Control: 40%
E. coli [2]; strain BX_00336.0: BW25113 wild type + pSmart-HC-Amp-nrdAB, M9 + Amp 100 μg/mL
  % Increase Over Control: 40%
E. coli [2]; strain BX_00337.0: BW25113 wild type + pSmart-HC-Amp-nrdEF, M9 + Amp 100 μg/mL
  % Increase Over Control: 40%
E. coli [2]; strain BX_00352.0: BW25113 wild type + pSmart-LC-Kan-metC C1, M9 + Amp 100 μg/mL
  % Increase Over Control: 40%
E. coli [2]; strain BX_00353.0: BW25113 wild type + pSmart-HC-Amp-metC, M9 + Amp 100 μg/mL
  % Increase Over Control: 80%
E. coli [2]; strain BX_00354.0: BW25113 wild type + pSmart-HC-Amp-cynTS, M9 + Amp 100 μg/mL
  % Increase Over Control: 80%
E. coli [2]; strain BX_00356.0: BW25113 wild type + pSmart-HC-Amp-LysA, M9 + Amp 100 μg/mL
  % Increase Over Control: 20%
E. coli [2]; strain BX_00357.0: BW25113 wild type + pKK223-aroH*445, M9 + Amp 100 μg/mL + 1 mM IPTG
  % Increase Over Control: 50%
E. coli [2]; strain BX_00358.0: BW25113 wild type + pKK223-aroH*447, M9 + Amp 100 μg/mL + 1 mM IPTG
  % Increase Over Control: 75%
E. coli [2]; strain BX_00359.0: BW25113 wild type + pKK223-aroH*457, M9 + Amp 100 μg/mL + 1 mM IPTG
  % Increase Over Control: 75%
E. coli [2]; strain BX_00361.0: BW25113 wild type + pACYC177 (Kan only)-cynTS, M9 + Kan 20 μg/mL
  % Increase Over Control: 40%
E. coli [2]; strain BX_00362.0: BW25113 wild type + pACYC177 (Kan only)-aroH, M9 + Kan 20 μg/mL + 1 mM IPTG
  % Increase Over Control: 20%
E. coli [2]; strain BX_00363.0: BW25113 wild type + pACYC177 (kan only)-speB, M9 + Kan 20 μg/mL
  % Increase Over Control: 40%
E. coli [2]; strain BX_00364.0: BW25113 wild type + pACYC177 (Kan only)-metE (Version1) (SS090608_13), M9 + Kan 20 μg/mL + 1 mM IPTG
  % Increase Over Control: 40%
E. coli [2]; strain BX_00365.0: BW25113 wild type + pACYC177 (Kan only)-metC (Version1) (SS090608_17), M9 + Kan 20 μg/mL
  % Increase Over Control: 40%
E. coli [2]; strain BX_00368.0: BW25113 wild type + pBT-3-cynTS, M9 + Cm (20 μg/mL)
  % Increase Over Control: 20%
E. coli [2]; strain BX_00370.0: BW25113 wild type + pBT-3-speB, M9 + Cm (20 μg/mL)
  % Increase Over Control: 20%
E. coli K12
  improvement in the MIC of 3-HP with cynTS plasmid: over sixty percent
E. coli [3]
  % Increase Over Control: 33%
[4]; Alamine 336 with Butanol (1)
  3-HP mass extractant: 0.59 G
  3-HP mass raffinate: 0.38 G
  % 3-HP extracted: 61%
  % 3-HP raffinate: 39%
  Total 3HP extracted: 0.59 G
[4]; [6]
  3-HP mass raffinate: 0.81 G
  % 3-HP extracted: 58%
  % 3-HP raffinate: 42%
[4]; [7]
  3-HP mass raffinate: 0.63 G
  % 3-HP extracted: 67%
  % 3-HP raffinate: 33%
[4]; [8]
  3-HP mass extractant: 0.73 G
  % 3-HP extracted: 38%
  % 3-HP raffinate: 62%
  Total 3HP extracted: 0.73 G
[4]; [9]
  3-HP mass extractant: 0.46 G
  % 3-HP extracted: 24%
  % 3-HP raffinate: 76%
  Total 3HP extracted: 0.46 G
E. coli Mach1-T1
  improvement in MIC of 3-HP, cells comprising the aroH mutant vs control: 40%
[5]; strain YX-CJR-005 (pYes2.1-Met6) versus YX-CJR-001, anaerobic
  % Increase Over Control: 50%
[5]; strain YX-CJR-008 (pyes2.1-ILV1) versus YX-CJR-001, anaerobic
  % Increase Over Control: 50%
